According to patent publication US20060173015A1, “Cyclohexyldiamines as selective alpha 1a/1d adrenoreceptor antagonists for the treatment of benign prostatic hypertrophy and lower urinary tract symptoms” (priority 2004, published 2006):

Key:
α1a-AR = target: T1, α1a-AR (Homo sapiens, UniProt P35348); assay: α1-Adrenergic receptor radio-ligand (125I-HEAT) binding assay, α1a subtype; settings: for Ki: COS-7 cell membranes, 125I-HEAT
T1 construct: expressed in transfected cells; host or cells: COS-7
T1 sequence (P35348 1-466): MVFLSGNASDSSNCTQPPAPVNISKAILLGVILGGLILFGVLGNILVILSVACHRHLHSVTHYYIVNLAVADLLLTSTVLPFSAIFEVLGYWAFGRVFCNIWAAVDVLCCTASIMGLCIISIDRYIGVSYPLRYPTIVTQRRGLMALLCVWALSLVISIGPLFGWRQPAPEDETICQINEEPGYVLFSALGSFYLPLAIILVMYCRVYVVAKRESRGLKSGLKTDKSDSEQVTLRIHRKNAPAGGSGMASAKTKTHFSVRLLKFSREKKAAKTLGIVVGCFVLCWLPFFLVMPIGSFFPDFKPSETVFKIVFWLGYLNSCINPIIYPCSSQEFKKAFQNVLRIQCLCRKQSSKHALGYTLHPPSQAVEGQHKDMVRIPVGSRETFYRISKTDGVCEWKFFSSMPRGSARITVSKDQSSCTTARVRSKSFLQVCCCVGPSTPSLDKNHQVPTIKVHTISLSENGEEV
Method: (§1) α1-Adrenergic Receptor Binding Assay: Preparation of COS Cell Membranes
(§2) Membranes were prepared from COS-7 cells that had been transfected with one of the three α1-AR subtypes by the following method. COS cells from ten 100 mm tissue culture plates were scraped into 5 mL TE (50 mM Tris-HCl, 5 mM EDTA, pH 7.4). The cell suspension was disrupted with a Brinkman Polytron, setting 8, for 10 sec. The disrupted cells were centrifuged at 1000×g for 10 min at 4° C. Supernatants were centrifuged at 34,500×g for 20 min at 4° C. The membrane pellets were suspended in 2 mL TNE (50 mM Tris-HCl, 5 mM EDTA, 150 mM NaCl, pH7.4). An aliquot of the membrane suspension was stored at −70° C. until use. The protein concentration was determined using the BioRad DC protein assay kit following membrane solubilization with Triton X-100.
(§3) Radio-Ligand Binding Assay
(§4) Triplicate determinations of radio-ligand binding in the presence of increasing: concentrations of testing compound were made. The reagents were added to 96-well polypropylene plate wells using the Biomek 1000 robot (Beckman Instruments). Each assay well contained 140 μl TNE, 25 μL ^125I-HEAT (specific activity 2200 Ci/mmol, Dupont-NEN, 50 pM final), 10 μL testing compound dissolved in DMSO (1 pM to 10 μM in half-log increments, final), and 25 μL appropriate α1-AR membrane subtype suspension in TNE (0.5 ng/μL for the α1a and α1b subtypes and 13 ng/μL for the α1d subtype). The plate was incubated at rt for 1 hr. The contents of the wells were filtered through a GF/C membrane Unifilter plate (Packard Instruments) using the Packard Filtermate cell harvester. The filter plates were dried in a vacuum oven for 30 min at 40° C. 25 μL Microscint 20 liquid scintillation fluid (Packard Instuments) was added to each well. The radioactive content was analyzed in the TopCount microplate scintillation counter (Packard Instruments).

α1d-AR = target: T2, α1d-AR (Homo sapiens, UniProt P25100); assay: α1-Adrenergic receptor radio-ligand (125I-HEAT) binding assay, α1d subtype; settings: for Ki: COS-7 cell membranes, 125I-HEAT, read-out: Receptor Binding, Ki α1d-AR
T2 construct: expressed in transfected cells; host or cells: COS-7
T2 sequence (P25100 1-572): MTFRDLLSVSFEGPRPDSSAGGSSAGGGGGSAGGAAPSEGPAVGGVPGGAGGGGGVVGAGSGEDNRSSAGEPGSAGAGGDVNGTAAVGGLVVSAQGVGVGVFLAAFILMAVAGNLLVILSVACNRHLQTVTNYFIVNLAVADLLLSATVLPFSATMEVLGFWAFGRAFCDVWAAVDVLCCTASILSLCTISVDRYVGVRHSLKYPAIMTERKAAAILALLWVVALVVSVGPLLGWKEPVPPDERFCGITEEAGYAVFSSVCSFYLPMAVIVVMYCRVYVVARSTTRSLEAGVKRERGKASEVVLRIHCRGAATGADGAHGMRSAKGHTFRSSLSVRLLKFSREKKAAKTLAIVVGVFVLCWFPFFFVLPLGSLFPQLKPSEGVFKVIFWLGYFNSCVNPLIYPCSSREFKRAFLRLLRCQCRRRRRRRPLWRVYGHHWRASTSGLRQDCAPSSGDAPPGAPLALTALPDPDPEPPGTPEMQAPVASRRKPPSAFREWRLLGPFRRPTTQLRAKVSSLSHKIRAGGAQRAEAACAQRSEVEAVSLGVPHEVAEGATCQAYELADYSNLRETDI
Method: as §1, §2, §3
as §4, with “Each assay well contained 140 μl TNE, 25 μL ^125I-HEAT (specific activity 2200 Ci/mmol, Dupont-NEN, 50 pM final), 10 μL testing compound dissolved in DMSO (1 pM to 10 μM in half-log increments, final), and 25 μL appropriate α1-AR membrane subtype suspension in TNE (0.5 ng/μL for the α1a and α1b subtypes and 13 ng/μL for the α1d subtype).” left out

α1b-AR = target: T3, α1b-AR (Homo sapiens, UniProt P35368); assay: α1-Adrenergic receptor radio-ligand (125I-HEAT) binding assay, α1b subtype; settings: for Ki: Receptor Binding, Ki α1b-AR, COS-7 cell membranes, 125I-HEAT
T3 sequence (P35368 1-520): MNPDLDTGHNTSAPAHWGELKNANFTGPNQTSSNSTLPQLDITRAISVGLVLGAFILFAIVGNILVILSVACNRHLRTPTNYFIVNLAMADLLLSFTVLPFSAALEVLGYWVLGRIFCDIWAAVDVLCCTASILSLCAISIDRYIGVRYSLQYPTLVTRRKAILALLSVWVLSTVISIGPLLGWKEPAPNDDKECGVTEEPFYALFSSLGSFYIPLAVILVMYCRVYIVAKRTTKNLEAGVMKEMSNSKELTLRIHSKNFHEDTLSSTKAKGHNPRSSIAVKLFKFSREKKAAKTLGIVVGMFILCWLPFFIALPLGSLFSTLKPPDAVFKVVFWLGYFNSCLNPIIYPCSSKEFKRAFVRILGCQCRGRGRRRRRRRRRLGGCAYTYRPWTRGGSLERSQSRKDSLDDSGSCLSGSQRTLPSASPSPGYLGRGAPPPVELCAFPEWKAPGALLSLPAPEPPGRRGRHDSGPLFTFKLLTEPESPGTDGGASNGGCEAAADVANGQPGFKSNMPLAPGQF

Row | Kd (α1a-AR; radio-ligand, read-out: Kd used in the Ki calculation, α1a-AR) | Kd (α1d-AR; radio-ligand, read-out: Kd used in the Ki calculation, α1d-AR) | Kd (α1b-AR; read-out: Kd used in the Ki calculation, α1b-AR, radio-ligand) | Ki (α1a-AR) | Ki (α1d-AR) | Ki (α1b-AR) | Compound
1 | 0.0815 µM | 0.05 µM | 0.079 µM |  |  |  | O=C1c2ccccc2CCC1CNCCc1ccc(O)c(I)c1 (stereo not shown) [125I-HEAT, reference compound]
2 |  |  |  | 0.0045 µM | 0.00064 µM | 0.177 µM | CC(C)Oc1ccccc1N1CCN([C@H]2CC[C@@H](NS(=O)(=O)c3ccc(Cl)cc3Cl)CC2)CC1 [Cpd 1, 2,4-Dichloro-N-cis-{4-[4-(2-isopropoxy-phenyl)-piperazine-1-yl]-cyclohexyl}-benzenesulfonamide]
3 |  |  |  | 0.0025 µM |  | 0.0476 µM | COc1ccc(Cl)cc1S(=O)(=O)N[C@H]1CC[C@@H](N2CCN(c3ccccc3OC(C)C)CC2)CC1 [Cpd 3, 5-Chloro-N-cis-{4-[4-(2-isopropoxy-phenyl)-piperazin-1-yl]-cyclohexyl}-2-methoxy-benzenesulfonamide]
4 |  |  |  | 0.0046 µM | 0.0038 µM | 0.141 µM | COc1ccc(C)cc1S(=O)(=O)N[C@H]1CC[C@@H](N2CCN(c3ccccc3OC(C)C)CC2)CC1 [Cpd 4, N-cis-{4-[4-(2-Isopropoxy-phenyl)-piperazin-1-yl]-cyclohexyl}-2-methoxy-5-methyl-benzenesulfonamide]
5 |  |  |  | 0.0125 µM | 0.0028 µM | 0.118 µM | CC(C)Oc1ccccc1N1CCN([C@H]2CC[C@@H](NS(=O)(=O)c3ccccc3S(C)(=O)=O)CC2)CC1 [Cpd 5, N-cis-{4-[4-(2-Isopropoxy-phenyl)-piperazin-1-yl]-cyclohexyl}-2-methanesulfonyl-benzenesulfonamide]
6 |  |  |  | 0.025 µM | 0.018 µM | 0.124 µM | CC(C)Oc1ccccc1N1CCN([C@H]2CC[C@@H](NS(=O)(=O)c3ccc(C(F)(F)F)cc3)CC2)CC1 [Cpd 9, N-cis-{4-[4-(2-Isopropoxy-phenyl)-piperazin-1-yl]-cyclohexyl}-4-trifluoromethyl-benzenesulfonamide]
7 |  |  |  | 0.0056 µM | 0.0048 µM | 0.15 µM | CC(C)Oc1ccccc1N1CCN([C@H]2CC[C@@H](NS(=O)(=O)c3ccc(F)cc3)CC2)CC1 [Cpd 10, 4-Fluoro-N-cis-{4-[4-(2-isopropoxy-phenyl)-piperazin-1-yl]-cyclohexyl}-benzenesulfonamide]
8 |  |  |  | 0.018 µM | 0.0011 µM | 0.129 µM | Cc1c(Cl)cccc1S(=O)(=O)N[C@H]1CC[C@@H](N2CCN(c3ccccc3OC(C)C)CC2)CC1 [Cpd 11, 3-Chloro-N-cis-{4-[4-(2-isopropoxy-phenyl)-piperazin-1-yl]-cyclohexyl}-2-methyl-benzenesulfonamide]
9 |  |  |  | 0.0038 µM | 0.0004 µM | 0.066 µM | CC(C)Oc1ccccc1N1CCN([C@H]2CC[C@@H](NS(=O)(=O)c3cc(Cl)ccc3F)CC2)CC1 [Cpd 12, 5-Chloro-2-fluoro-N-cis-{4-[4-(2-isopropoxy-phenyl)-piperazin-1-yl]-cyclohexyl}-benzenesulfonamide]
10 |  |  |  | 0.023 µM | 0.0034 µM | 0.19 µM | CC(C)Oc1ccccc1N1CCN([C@H]2CC[C@@H](NS(=O)(=O)c3ccccc3C(F)(F)F)CC2)CC1 [Cpd 13, N-cis-{4-[4-(2-Isopropoxy-phenyl)-piperazin-1-yl]-cyclohexyl}-2-trifluoromethyl-benzenesulfonamide]
11 |  |  |  | 0.0116 µM | 0.0043 µM | 0.246 µM | CC(C)Oc1ccccc1N1CCN([C@H]2CC[C@@H](NS(=O)(=O)c3ccc(F)c(Cl)c3)CC2)CC1 [Cpd 14, 3-Chloro-4-fluoro-N-cis-{4-[4-(2-isopropoxy-phenyl)-piperazin-1-yl]-cyclohexyl}-benzenesulfonamide]
12 |  |  |  | 0.006 µM | 0.005 µM | 0.162 µM | COc1ccc(F)cc1S(=O)(=O)N[C@H]1CC[C@@H](N2CCN(c3ccccc3OC(C)C)CC2)CC1 [Cpd 15, 5-Fluoro-N-cis-{4-[4-(2-isopropoxy-phenyl)-piperazin-1-yl]-cyclohexyl}-2-methoxy-benzenesulfonamide]
13 |  |  |  | 0.0174 µM | 0.0021 µM | 0.174 µM | CC(C)Oc1ccccc1N1CCN([C@H]2CC[C@@H](NS(=O)(=O)c3ccc(OC(F)(F)F)cc3)CC2)CC1 [Cpd 17, N-cis-{4-[4-(2-Isopropoxy-phenyl)-piperazin-1-yl]-cyclohexyl}-4-trifluoromethoxy-benzenesulfonamide]
14 |  |  |  | 0.0105 µM | 0.0111 µM | 0.167 µM | Cc1ccc(S(=O)(=O)N[C@H]2CC[C@@H](N3CCN(c4ccccc4OC(C)C)CC3)CC2)cc1Cl [Cpd 18, 3-Chloro-N-cis-{4-[4-(2-isopropoxy-phenyl)-piperazin-1-yl]-cyclohexyl}-4-methyl-benzenesulfonamide]
15 |  |  |  | 0.0043 µM | 0.0022 µM | 0.0853 µM | COc1ccc([N+](=O)[O-])cc1S(=O)(=O)N[C@H]1CC[C@@H](N2CCN(c3ccccc3OC(C)C)CC2)CC1 [Cpd 19, N-cis-{4-[4-(2-Isopropoxy-phenyl)-piperazin-1-yl]-cyclohexyl}-2-methoxy-5-nitro-benzenesulfonamide]
16 |  |  |  | 0.0359 µM | 0.014 µM | 0.473 µM | COc1ccc(C(F)(F)F)cc1S(=O)(=O)N[C@H]1CC[C@@H](N2CCN(c3ccccc3OC(C)C)CC2)CC1 [Cpd 20, N-cis-{4-[4-(2-Isopropoxy-phenyl)-piperazin-1-yl]-cyclohexyl}-2-methoxy-5-trifluoromethyl-benzenesulfonamide]
17 |  |  |  | 0.0038 µM |  | 0.25 µM | COc1ccc(Cl)cc1S(=O)(=O)N[C@H]1CC[C@H](N2CCN(c3ccccc3OC(C)C)CC2)CC1 [Cpd 31, 5-Chloro-N-trans-{4-[4-(2-isopropoxy-phenyl)-piperazin-1-yl]-cyclohexyl}-2-methoxy-benzenesulfonamide]
